Measurements reported in BindingDB's records for doi:10.1016/j.bmcl.2009.07.032 (Amgen, 2009).

Test: Antagonist activity against human CXCR3 expressed in human PBMC assessed as inhibition of cell migration in response to MIG in buffer

IC50 | SMILES
0.6 nM | CCS(=O)(=O)CCN(C(=O)Cc1ccc(F)c(C(F)(F)F)c1)[C@H](C)c1nc2ncccc2c(=O)n1-c1ccc(OCC(F)(F)F)cc1 [(R)-N-(2-(ethylsulfonyl)ethyl)-2-(4-fluoro-3-(trifluoromethyl)phenyl)-N-(1-(4-oxo-3-(4-(2,2,2-trifluoroethoxy)phenyl)-3,4-dihydropyrido[2,3-d]pyrimidin-2-yl)ethyl)acetamide]

Test: Antagonist activity against human CXCR3 expressed in human PBMC assessed as inhibition of cell migration in response to ITAC in plasma

SMILES | IC50
CCOc1ccc(-n2c([C@@H](C)N(Cc3cccnc3)C(=O)Cc3cc(C(F)(F)F)cc(C(F)(F)F)c3)nc3ccccc3c2=O)cc1 [(R)-2-(3,5-bis(trifluoromethyl)phenyl)-N-(1-(3-(4-ethoxyphenyl)-4-oxo-3,4-dihydroquinazolin-2-yl)ethyl)-N-(pyridin-3-ylmethyl)acetamide] | 17 nM
CCOc1ccc(-n2c([C@@H](C)N(C(=O)Cc3ccc(F)c(C(F)(F)F)c3)C3CCN(C(C)C)CC3)nc3ncccc3c2=O)cc1 [(R)-N-(1-(3-(4-ethoxyphenyl)-4-oxo-3,4-dihydropyrido[2,3-d]pyrimidin-2-yl)ethyl)-2-(4-fluoro-3-(trifluoromethyl)phenyl)-N-(1-isopropylpiperidin-4-yl)acetamide] | 5 nM
CCOc1ccc(-n2c([C@@H](C)N(Cc3cc(C)no3)C(=O)Cc3ccc(F)c(C(F)(F)F)c3)nc3ncccc3c2=O)cc1 [(R)-N-(1-(3-(4-ethoxyphenyl)-4-oxo-3,4-dihydropyrido[2,3-d]pyrimidin-2-yl)ethyl)-2-(4-fluoro-3-(trifluoromethyl)phenyl)-N-((3-methylisoxazol-5-yl)methyl)acetamide] | 59 nM
CCOc1ccc(-n2c([C@@H](C)N(Cc3cccnc3)C(=O)Cc3ccc(F)c(C(F)(F)F)c3)nc3ncccc3c2=O)cc1 [(R)-N-(1-(3-(4-ethoxyphenyl)-4-oxo-3,4-dihydropyrido[2,3-d]pyrimidin-2-yl)ethyl)-2-(4-fluoro-3-(trifluoromethyl)phenyl)-N-(pyridin-3-ylmethyl)acetamide] | 20 nM
CCOc1ccc(-n2c([C@@H](C)N(Cc3cccnc3)C(=O)Cn3cnc(C(F)(F)F)c3)nc3ccccc3c2=O)cc1 [(R)-N-(1-(3-(4-ethoxyphenyl)-4-oxo-3,4-dihydroquinazolin-2-yl)ethyl)-N-(pyridin-3-ylmethyl)-2-(4-(trifluoromethyl)-1H-imidazol-1-yl)acetamide] | 450 nM
CCOc1ccc(-n2c([C@@H](C)N(C[C@H]3CCCN3C(C)C)C(=O)Cc3ccc(F)c(C(F)(F)F)c3)nc3ncccc3c2=O)cc1 [N-((R)-1-(3-(4-ethoxyphenyl)-4-oxo-3,4-dihydropyrido[2,3-d]pyrimidin-2-yl)ethyl)-2-(4-fluoro-3-(trifluoromethyl)phenyl)-N-(((R)-1-isopropylpyrrolidin-2-yl)methyl)acetamide] | 10 nM
CCOc1ccc(-n2c([C@@H](C)N(C[C@@H]3CCCN3C(C)C)C(=O)Cc3ccc(F)c(C(F)(F)F)c3)nc3ncccc3c2=O)cc1 [N-((R)-1-(3-(4-ethoxyphenyl)-4-oxo-3,4-dihydropyrido[2,3-d]pyrimidin-2-yl)ethyl)-2-(4-fluoro-3-(trifluoromethyl)phenyl)-N-(((S)-1-isopropylpyrrolidin-2-yl)methyl)acetamide] | 80 nM

Further molecules by falling IC50, results first:

IC50 | SMILES
162 nM | CCOc1ccc(-n2c([C@@H](C)N(C(=O)Cc3ccc(F)c(C(F)(F)F)c3)C3CCOCC3)nc3ncccc3c2=O)cc1 [(R)-N-(1-(3-(4-ethoxyphenyl)-4-oxo-3,4-dihydropyrido[2,3-d]pyrimidin-2-yl)ethyl)-2-(4-fluoro-3-(trifluoromethyl)phenyl)-N-(tetrahydro-2H-pyran-4-yl)acetamide]
131 nM | CCOc1ccc(-n2c([C@@H](C)N(C(=O)Cc3ccc(F)c(C(F)(F)F)c3)C3CCN(C(C)=O)CC3)nc3ncccc3c2=O)cc1 [(R)-N-(1-acetylpiperidin-4-yl)-N-(1-(3-(4-ethoxyphenyl)-4-oxo-3,4-dihydropyrido[2,3-d]pyrimidin-2-yl)ethyl)-2-(4-fluoro-3-(trifluoromethyl)phenyl)acetamide]
58 nM | CCOc1ccc(-n2c([C@@H](C)N(Cc3ccc[n+]([O-])c3)C(=O)Cc3ccc(OC(F)(F)F)cc3)nc3ncccc3c2=O)cc1 [(R)-3-((N-(1-(3-(4-ethoxyphenyl)-4-oxo-3,4-dihydropyrido[2,3-d]pyrimidin-2-yl)ethyl)-2-(4-(trifluoromethoxy)phenyl)acetamido)methyl)pyridine 1-oxide]
23 nM | CCOc1ccc(-n2c([C@@H](C)N(Cc3cccnc3)C(=O)Cc3ccc(F)c(C(F)(F)F)c3)nc3cnccc3c2=O)cc1 [(R)-N-(1-(3-(4-ethoxyphenyl)-4-oxo-3,4-dihydropyrido[3,4-d]pyrimidin-2-yl)ethyl)-2-(4-fluoro-3-(trifluoromethyl)phenyl)-N-(pyridin-3-ylmethyl)acetamide]
22 nM | CCOc1ccc(-n2c([C@@H](C)N(CCS(=O)(=O)CC)C(=O)Cc3ccc(F)c(C(F)(F)F)c3)nc3ncccc3c2=O)cc1 [(R)-N-(1-(3-(4-ethoxyphenyl)-4-oxo-3,4-dihydropyrido[2,3-d]pyrimidin-2-yl)ethyl)-N-(2-(ethylsulfonyl)ethyl)-2-(4-fluoro-3-(trifluoromethyl)phenyl)acetamide]
20 nM | CCOc1ccc(-n2c([C@@H](C)N(CC3CCN(C)CC3)C(=O)Cc3ccc(F)c(C(F)(F)F)c3)nc3ncccc3c2=O)cc1 [(R)-N-(1-(3-(4-ethoxyphenyl)-4-oxo-3,4-dihydropyrido[2,3-d]pyrimidin-2-yl)ethyl)-2-(4-fluoro-3-(trifluoromethyl)phenyl)-N-((1-methylpiperidin-4-yl)methyl)acetamide]
20 nM | CCOc1ccc(-n2c([C@@H](C)N(C[C@H]3CCCN3)C(=O)Cc3ccc(F)c(C(F)(F)F)c3)nc3ncccc3c2=O)cc1 [N-((R)-1-(3-(4-ethoxyphenyl)-4-oxo-3,4-dihydropyrido[2,3-d]pyrimidin-2-yl)ethyl)-2-(4-fluoro-3-(trifluoromethyl)phenyl)-N-((R)-pyrrolidin-2-ylmethyl)acetamide]
15 nM | CCS(=O)(=O)CCN(C(=O)Cc1ccc(F)c(C(F)(F)F)c1)[C@H](C)c1nc2ncccc2c(=O)n1-c1ccc(OCC(F)(F)F)cc1 [(R)-N-(2-(ethylsulfonyl)ethyl)-2-(4-fluoro-3-(trifluoromethyl)phenyl)-N-(1-(4-oxo-3-(4-(2,2,2-trifluoroethoxy)phenyl)-3,4-dihydropyrido[2,3-d]pyrimidin-2-yl)ethyl)acetamide]

Test: Antagonist activity against human CXCR3 expressed in human PBMC assessed as inhibition of cell migration in response to IP10 in buffer

IC50 | SMILES
0.4 nM | CCS(=O)(=O)CCN(C(=O)Cc1ccc(F)c(C(F)(F)F)c1)[C@H](C)c1nc2ncccc2c(=O)n1-c1ccc(OCC(F)(F)F)cc1 [(R)-N-(2-(ethylsulfonyl)ethyl)-2-(4-fluoro-3-(trifluoromethyl)phenyl)-N-(1-(4-oxo-3-(4-(2,2,2-trifluoroethoxy)phenyl)-3,4-dihydropyrido[2,3-d]pyrimidin-2-yl)ethyl)acetamide]

Test: Antagonist activity against human CXCR3 expressed in human PBMC assessed as inhibition of cell migration in response to ITAC in RPMI buffer

IC50 | SMILES
0.8 nM | CCS(=O)(=O)CCN(C(=O)Cc1ccc(F)c(C(F)(F)F)c1)[C@H](C)c1nc2ncccc2c(=O)n1-c1ccc(OCC(F)(F)F)cc1 [(R)-N-(2-(ethylsulfonyl)ethyl)-2-(4-fluoro-3-(trifluoromethyl)phenyl)-N-(1-(4-oxo-3-(4-(2,2,2-trifluoroethoxy)phenyl)-3,4-dihydropyrido[2,3-d]pyrimidin-2-yl)ethyl)acetamide]
